Experiment: Oxygen Radical Absorbance Capacity (ORAC) antioxidant potential
Conditions: ORAC test, test solutions at 100 micromolar; calculated from ORAC values relative to Trolox
Method: Antioxidant potential is evaluated using the Oxygen Radical Absorbance Capacity (ORAC) protocol. ORAC is a chemical in-vitro method based on the hydrogen atom transfer (HAT) mechanism (see N. Re et al., Free Radical Biology & Medicine, 26 (9/10), 1231 (1997)). ORAC measures antioxidant inhibition of peroxyl radical induced oxidations and thus reflects classical radical chain breaking antioxidant activity by H atom transfer. In this assay, the peroxyl radical reacts with a fluorescent probe to form a non-fluorescent product. This is quantitated using a fluorescence measurement. Antioxidant capacity is determined by decreased rate and amount of product formed over time. This assay depends upon the free radical damage to the fluorescent probe resulting in the change in its fluorescence intensity. The change of fluorescence intensity is an indicator of the degree of free radical damage. In the presence of an antioxidant, the inhibition of free radical damage is reflected in higher fluorescence intensity and can be measured as antioxidant capacity against the free radicals. The uniqueness of ORAC assay is that the reaction is driven to completion. This allows calculation of the area under the curve (AUC) and gives an absolute quantitation of antioxidancy as opposed to relative measurements in many other assays.
As noted, the longer it takes to observe a decrease in fluorescence, the higher the antioxidant (AO) potential. From the AUC for a given antioxidant, the AUC for blank is subtracted to give its ORAC value. The concentration of AO needed to give the same AUC values as Trolox is calculated and used to represent the Trolox equivalent AO Capacity (TEAC). Trolox is ((±)-6-Hydroxy-2,5,7,8-tetramethylchromane-2-carboxylic acid, CAS #53188-07-1), and is used as an internal control. […]
The inventive stilbene-pendant nitrones in the ORAC test solutions were at a concentration of 100 micromolar, while the concentrations of Trolox, Vitamin C, Vitamin E, BHT, PBN+BHT, and VAL-IPHA were at 100 micromolar. The TEAC values calculated from the ORAC values are listed the Table 2.

Compound	TEAC (Trolox equivalent AO Capacity)
CC(C)(C)/[N+]([O-])=C/c1ccccc1 [PBN, 2-Phenyl-N-tert-butylnitrone]	not very high
O=C1O[C@H]([C@@H](O)CO)C(O)=C1O [Vitamin C]	0.76
Vitamin E	0.13

Source: patent publication US10064804B2, “Polymeric nitrones and their use in personal care” (Dow Global Technologies LLC, priority 2014, dated 2018)
